# Results as given in patent US6784201B2, “Benzothiepines having activity as inhibitors of ileal bile acid transport and taurocholate uptake” (G.D. Searle & Company, priority 1994, dated 2004).
# Where two headings read alike, the source gives them in different places.
# Experiments:
# H14 cells = assay: In vitro assay of uptake of [14C]-alanine; type: cell-based, hamster; settings: Mesocricetus auratus
# Protocol: Baby hamster kidney cells (BHK) transfected with the cDNA of human IBAT (H14 cells) are seeded at 60,000 cells/well in 96 well Top-Count tissue culture plates for assays run within in 24 hours of seeding, 30,000 cells/well for assays run within 48 hours, and 10,000 cells/well for assays run within 72 hours.
# On the day of assay, the cell monolayer is gently washed once with 100 μl assay buffer (Dulbecco's Modified Eagle's medium with 4.5 g/L glucose+0.2% (w/v) fatty acid free bovine serum albumin-(FAF)BSA). To each well 50 μl of a two-fold concentrate of test compound in assay buffer is added along with 50 μl of 6 μM [^14C]-taurocholate in assay buffer (final concentration of 3 μM [^14C]-taurocholate). The cell culture plates are incubated 2 hours at 37° C. prior to gently washing each well twice with 100 μl 4° C. Dulbecco's phosphate-buffered saline (PBS) containing 0.2% (w/v) (FAF)BSA. The wells are then gently washed once with 100 μl 4° C. PBS without (FAF)BSA. To each 200 μl of liquid scintillation counting fluid is added, the plates are heat sealed and shaken for 30 minutes at room temperature prior to measuring the amount of radioactivity in each well on a Packard Top-Count instrument.
# In Vitro Assay of Compounds that Inhibit Uptake of [^14C3-Alanine
# The alanine uptake assay is performed in an identical fashion to the taurocholate assay, with the exception that labeled alanine is substituted for the labeled taurocholate.
# human IBAT = biological target: T1, human IBAT (Homo sapiens, UniProt Q12908); assay: In vitro assay of IBAT-mediated uptake of [14C]-taurocholate (TC) in H14 cells; type: cell-based
# T1 construct: expressed in transfected cells; host or cells: Baby hamster kidney (BHK) cells, clone H14
# T1 sequence (Q12908 1-348): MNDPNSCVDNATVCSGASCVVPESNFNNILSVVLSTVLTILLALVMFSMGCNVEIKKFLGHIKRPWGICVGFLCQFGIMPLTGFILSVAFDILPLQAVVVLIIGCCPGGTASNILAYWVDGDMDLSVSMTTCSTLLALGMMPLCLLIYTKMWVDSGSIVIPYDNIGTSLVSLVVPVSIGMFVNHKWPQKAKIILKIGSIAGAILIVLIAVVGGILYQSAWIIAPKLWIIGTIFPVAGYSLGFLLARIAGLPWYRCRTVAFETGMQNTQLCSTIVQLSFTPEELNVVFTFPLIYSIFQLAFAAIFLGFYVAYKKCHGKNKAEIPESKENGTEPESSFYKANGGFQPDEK
# In short: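 BHK cells stably expressing human IBAT (H14) were incubated 2 h at 37° C with compound and 3 μM final [14C]-taurocholate in DMEM (4.5 g/L glucose) plus 0.2% fatty acid-free BSA. After cold PBS washes, cell-associated radioactivity was measured by scintillation counting.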
# fecal bile acid (FBA) = assay: Rat gavage assay (fecal bile acid increase); type: in vivo
# Protocol: Male Wister rats (275-300 g) are administered IBAT inhibitors using an oral gavage procedure. Drug or vehicle (0.2% Tween 80 in water) is administered once a day (9:00-10:0 a.m.) for 4 days at varying dosages in a final volume of 2 mL per kilogram of body weight. Total fecal samples are collected during the final 48 hours of the treatment period and analyzed for bile acid content using an enzymatic assay as described below. Compound efficacy is determined by comparison of the increase in fecal bile acid (FBA) concentration in treated rats to the mean FBA concentration of rats in the vehicle group.
# Measurement of Fecal Bile Acid Concentration (FBA)
# Total fecal output from individually housed hamsters was collected for 24 or 48 hours, dried under a stream of nitrogen, pulverized and weighed. Approximately 0.1 gram was weighed out and extracted into an organic solvent (butanol/water). Following separation and drying, the residue was dissolved in methanol and the amount of bile acid present was measured enzymatically using the 3α-hydroxysteroid steroid dehydrogenase reaction with bile acids to reduce NAD. (Reference: Mashige, F., et al. (1981) Clin. Chem. 27, 1352).
# [1] = H14 cells, Table 5, read-out: IC50 uM (In vitro Taurocholate Cell Uptake)
# [2] = In Vitro Taurocholate Uptake, Table 10, read-out: Human TC IC50
SMILES,inhibition at 100 µM (H14 cells),IC50 (human IBAT; [1]),inhibition at 20 µM (H14 cells; 20 μM),IC50 (human IBAT; [2]),Delta (micromoles fecal bile acid per day) (fecal bile acid (FBA); dose 2 mg/kg/day),Delta (micromoles fecal bile acid per day) (fecal bile acid (FBA); dose .016 mg/kg/day),Delta (micromoles fecal bile acid per day) (fecal bile acid (FBA); dose .08 mg/kg/day),Delta (micromoles fecal bile acid per day) (fecal bile acid (FBA); dose .4 mg/kg/day),Delta (micromoles fecal bile acid per day) (fecal bile acid (FBA); dose 5 mg/kg/day),Delta (micromoles fecal bile acid per day) (fecal bile acid (FBA); dose .04 mg/kg/day),Delta (micromoles fecal bile acid per day) (fecal bile acid (FBA); dose .2 mg/kg/day)
"O=S1(=O)CC2(CCCCC2)[C@@H](O)[C@@H](c2ccccc2)c2ccccc21 (relative stereo) [Example 60, cis-4-Hydroxy-5-phenyl-2,3,4,5-tetrahydro spiro(benzothiepine-3,1′-cyclohexane)-1,1-dioxide]",59%,9 µM,,,,,,,,,
"CCCCC1(CC)C=C(c2ccccc2)c2ccccc2S(=O)(=O)C1 (centres unmarked) [Example 7, 3-Butyl-3-ethyl-5-phenyl-2,3-dihydrobenzothiepine-1,1-dioxide]",49.3%,50 µM,,,,,,,,,
"CCCC[C@]1(CC)CS(=O)(=O)c2cc(O)ccc2[C@H](c2ccccc2)[C@@H]1O [Example 27, (3α,4α,5α) 3-Butyl-3-ethyl-4,8-dihydroxy-5-phenyl-2,3,4,5-tetrahydrobenzothiepine-1,1-dioxide]",,,7%,,,,,,,,
"CCCCC1(CCCC)CS(=O)(=O)c2ccc(N(C)C)cc2[C@@H](c2ccc(OCCCC[N+](CC)(CC)CC)cc2)[C@H]1O.CS(=O)(=O)[O-] [Example 1410, (4R-cis)-4-[4-[3,3-Dibutyl-7-(dimethylamino)-2,3,4,5-tetrahydro-4-hydroxy-1,1-dioxido-1-benzothiepin-5-yl]phenoxy]-N,N,N-triethyl-1-butanaminium]",,,,0.002 µM,26.2 micromoles fecal bile acid per day,20.4 micromoles fecal bile acid per day,18.5 micromoles fecal bile acid per day,36.5 micromoles fecal bile acid per day,,,
"CCCCC1(CCCC)CS(=O)(=O)c2ccc(N(C)C)cc2[C@@H](c2ccc(OCCCC[n+]3cccc(O)c3)cc2)[C@H]1O.CS(=O)(=O)[O-] [Example 1411, (4R-cis)-1-[4-[4-[3,3-Dibutyl-7-(dimethylamino)-2,3,4,5-tetrahydro-4-hydroxy-1,1-dioxido-1-benzothiepin-5-yl]phenoxy]butyl]-3-hydroxypyridinium, methanesulfonate (Salt)]",,,,0.002 µM,63.4 micromoles fecal bile acid per day,22.3 micromoles fecal bile acid per day,33 micromoles fecal bile acid per day,54.1 micromoles fecal bile acid per day,,,
"CCCCC1(CCCC)CS(=O)(=O)c2ccc(N(C)C)cc2[C@@H](c2ccc(OCCCCCN(CC)CC)cc2)[C@H]1O [Example 1414, (4R-cis)-3,3-Dibutyl-5-[4-[[5-(diethylamino)pentyl]oxy]phenyl]-7-(dimethylamino)-2,3,4,5-tetrahydro-1-benzothiepin-4-ol 1,1-dioxide]",,,,0.015 µM,41.5 micromoles fecal bile acid per day,3.8 micromoles fecal bile acid per day,29 micromoles fecal bile acid per day,33.7 micromoles fecal bile acid per day,45.2 micromoles fecal bile acid per day,14.3 micromoles fecal bile acid per day,39.5 micromoles fecal bile acid per day
"CCCCC1(CCCC)CS(=O)(=O)c2ccc(N(C)C)cc2[C@@H](c2ccc(OCCCCCN(CC(=O)O)CC(=O)O)cc2)[C@H]1O [Example 1415, (4R-cis)-N-(Carboxymethyl)-N-[5-[4-[3,3-dibutyl-7-(dimethylamino)-2,3,4,5-tetrahydro-4-hydroxy-1,1-dioxido-1-benzothiepin-5-yl]phenoxy]pentyl]glycine]",,,,0.002 µM,48.9 micromoles fecal bile acid per day,12.7 micromoles fecal bile acid per day,27.1 micromoles fecal bile acid per day,25.7 micromoles fecal bile acid per day,59.9 micromoles fecal bile acid per day,23.9 micromoles fecal bile acid per day,48.1 micromoles fecal bile acid per day
"CCCCC1(CCCC)CS(=O)(=O)c2ccc(N(C)C)cc2[C@@H](c2ccc(OCCCCCN(CCN(CC)CC)CCN(CC)CC)cc2)[C@H]1O [Example 1416, (4R-cis)-5-[4-[[5-[bis[2-(Diethylamino)ethyl]amino]pentyl]oxy]phenyl]-3,3-dibutyl-7-(dimethylamino)-2,3,4,5-tetrahydro-1-benzothiepin-4-ol 1,1-dioxide]",,,,0.014 µM,46.1 micromoles fecal bile acid per day,−7.8 micromoles fecal bile acid per day,25 micromoles fecal bile acid per day,21.9 micromoles fecal bile acid per day,,,
"CCCCC1(CCCC)CS(=O)(=O)c2ccc(N(C)C)cc2[C@@H](c2ccc(OCCCCCNCCc3cnc[nH]3)cc2)[C@H]1O [Example 1417, (4R-cis)-3,3-Dibutyl-7-(dimethylamino)-2,3,4,5-tetrahydro-5-[4-[[5-[[2-(1H-imidazol-4-yl)ethyl]amino]pentyl]oxy]phenyl]-1-benzothiepin-4-ol 1,1-dioxide]",,,,0.002 µM,51.4 micromoles fecal bile acid per day,29.3 micromoles fecal bile acid per day,39.6 micromoles fecal bile acid per day,42 micromoles fecal bile acid per day,,,
"CCCCC1(CCCC)CS(=O)(=O)c2ccc(N(C)C)cc2[C@@H](c2ccc(OCCCCCNCC(=O)O)cc2)[C@H]1O [Example 1423, (4R-cis)-N-[5-[4-[3,3-Dibutyl-7-(dimethylamino)-2,3,4,5-tetrahydro-4-hydroxy-1,1-dioxido-1-benzothiepin-5-yl]phenoxy]pentyl]glycine]",,,,0.003 µM,56.5 micromoles fecal bile acid per day,14.4 micromoles fecal bile acid per day,35.3 micromoles fecal bile acid per day,69.3 micromoles fecal bile acid per day,,,
"CCCCC1(CCCC)CS(=O)(=O)c2ccc(N(C)C)cc2[C@@H](c2ccc(OCc3ccc(C[n+]4ccccc4)cc3)cc2)[C@H]1O.[Cl-] [Example 1425, (4R-cis)-1-[[4-[[4-[3,3-Dibutyl-7-(dimethylamino)-2,3,4,5-tetrahydro-4-hydroxy-1,1-dioxido-1-benzothiepin-5-yl]phenoxy]methyl]phenyl]methyl]-pyridinium chloride]",,,,0.002 µM,,,,,91.8 micromoles fecal bile acid per day,66.4 micromoles fecal bile acid per day,100. micromoles fecal bile acid per day
